Assay results taken from PMC3582601, “New analogues of 13-hydroxyocatdecadienoic acid and 12-hydroxyeicosatetraenoic acid block human blood platelet aggregation and cyclooxygenase-1 activity” (Chemistry Central Journal, 2012).
Like-named read-outs stand apart in the source and are kept apart here.

Columns and labels:
human washed platelets [1] = experiment: Platelet aggregation triggered by arachidonic acid (light transmittance aggregometry); format: cell-based; details: for Effect on arachidonic acid-dependent platelet aggregation: 25 μM arachidonic acid, human washed platelets; for Plt aggregation IC50 ± S.E.M / IC50: human washed platelets 0.4 x 10^9 plt/ml, inhibitor 1 min before 25 μM arachidonic acid, n = 3–4; for IC50: read-out: Plt aggregation IC50 ± S.E.M
Protocol: Figure 2 Aggregation curves of inhibitory compounds. Platelet aggregation was performed on human washed platelets. Platelets (0.4 × 10^9 plt/ml) were treated with increasing concentrations of each inhibitor for 1 min prior to the addition of 25 μM of arachidonic acid for 2 min. Results represent aggregation curves of compound 3 (A), compound 4 (B), compound 7 (C), compound 8 (D), and compound 9 (E). Aggregation curves are representative of at least 4 experiments with similar results.
Slopes of aggregation curves were analyzed by Grafit 7 software and inhibition curves were obtained. (A) represents compounds of type I and (B) compounds of type II. […] Results correspond to mean ± S.E.M. for 3–5 experiments.
(§1) Venous blood was obtained from healthy volunteers who had not ingested any drugs for the last 14 days and after informed consent in accordance with the Institutional Review Board (IRB) of the American University of Beirut (Approval # BioCh.AH.03). Washed platelets were prepared as described previously. Briefly, 20 ml of peripheral blood was withdrawn on ACD-C (1 volume for 9 volumes of blood) and centrifuged at 120 g for 15 min at room temperature (RT) to obtain platelet-rich plasma. Platelet-rich plasma was further centrifuged at 1,200 g for 15 min at RT, and the platelet pellet obtained was washed by Tyrode buffer solution containing 0.1 μM of PGE1 and further centrifuged at 1,200 g for 15 min at RT. […] Aggregation of washed-platelets was determined using light transmittance aggregometry (Chrono-Log Corp., Havertown, PA). 400 μl of platelets (0.4 x 10^9plt/ml) were preincubated for 1 min at 37 °C in the absence or presence of inhibitors prior to the addition of 25 μM of arachidonic acid, which was controlled as optimal in our conditions. In some experiments, platelets were triggered with 1 μM U46619, a TX receptor agonist, or 0.5 μg/ml collagen, a concentration we checked in our conditions to induce COX-dependent platelet aggregation. TXB2 was measured in the supernatant by enzyme immunoassay.
(§2) Aggregation data were expressed after defining the slope for each aggregation curve, which better reflects the rate of the platelet reaction, using the Born’s method. Curve fitting and calculation of the IC50 values were done using Grafit 7 software (Erithacus software, Staines, UK). Results of TXB2 and PGE2 measurement were expressed as the mean ± S.E.M. for at least 3 different experiments and statistical analysis was performed using Sigma Plot (Systat Software Inc., San Jose, CA). Autoradiograms obtained from western blot analyses were scanned using Epson 1680 pro scanner and densitometric analysis was performed using Scion Image (Scion Corporation, MD).

human COX-1 = target: T1, human COX-1 (Homo sapiens, UniProt P23219); experiment: COX-1 activity (PGE2 by enzyme immunoassay) in COS-7 cells overexpressing human COX-1; format: cell-based; details: COS-7 cells overexpressing human COX-1, 30 min compound then 25 μM arachidonic acid 30 min, n = 3-4, read-out: COX-1 activity IC50 ± S.E.M
T1 construct: expressed in transfected cells; host or cells: COS-7
T1 sequence (P23219 24-599): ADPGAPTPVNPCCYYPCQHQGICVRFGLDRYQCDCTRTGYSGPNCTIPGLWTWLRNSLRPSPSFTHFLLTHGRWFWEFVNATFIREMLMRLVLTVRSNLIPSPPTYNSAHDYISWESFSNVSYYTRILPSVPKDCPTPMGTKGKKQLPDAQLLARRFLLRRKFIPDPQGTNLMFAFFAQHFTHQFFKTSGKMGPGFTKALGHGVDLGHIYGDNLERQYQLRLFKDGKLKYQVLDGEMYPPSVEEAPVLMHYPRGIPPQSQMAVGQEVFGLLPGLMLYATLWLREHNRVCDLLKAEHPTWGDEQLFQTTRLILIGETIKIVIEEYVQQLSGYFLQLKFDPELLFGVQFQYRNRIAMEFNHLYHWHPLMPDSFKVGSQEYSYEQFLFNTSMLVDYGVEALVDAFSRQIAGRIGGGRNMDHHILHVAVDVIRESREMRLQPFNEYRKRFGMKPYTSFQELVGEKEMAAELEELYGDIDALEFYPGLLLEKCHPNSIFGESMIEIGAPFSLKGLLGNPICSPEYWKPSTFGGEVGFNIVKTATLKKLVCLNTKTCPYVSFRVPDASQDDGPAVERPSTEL
Protocol: Figure 4 Inhibition of COX-1 activity. Human COX-1 was overexpressed in COS-7 cells. […] PGE2 was measured in the supernatant by enzyme immunoassay. Results were expressed as percentage of PGE2 in arachidonic acid treated samples which was attributed a value of 100. Fitting of curves was done using Grafit software. Results correspond to mean ± S.E.M. for 3 experiments. […] Insert represents Western blot analysis of COX-1 using selective monoclonal COX-1 in untransfected and pcDNA3-COX-1transfected cells.
as §2

human washed platelets [2] = experiment: Platelet aggregation induced by collagen; format: cell-based; details: 0.5 μg/ml collagen
Protocol: Figure 6 Effect of inhibitory compounds on platelet aggregation and TXB2 level formation in response to collagen. […] TXB2 levels were measured in the supernatant of platelets (C). Results represent 3 experiments.
as §1

thromboxane receptor = target: T2, thromboxane receptor (Homo sapiens, UniProt P21731); experiment: Platelet aggregation in response to TX receptor agonist U46619; format: cell-based; details: 50 μM compound, 1 μM U46619
T2 construct: Venous blood was obtained from healthy volunteers; endogenous in cells; host or cells: washed human blood platelets
T2 sequence (P21731 1-343): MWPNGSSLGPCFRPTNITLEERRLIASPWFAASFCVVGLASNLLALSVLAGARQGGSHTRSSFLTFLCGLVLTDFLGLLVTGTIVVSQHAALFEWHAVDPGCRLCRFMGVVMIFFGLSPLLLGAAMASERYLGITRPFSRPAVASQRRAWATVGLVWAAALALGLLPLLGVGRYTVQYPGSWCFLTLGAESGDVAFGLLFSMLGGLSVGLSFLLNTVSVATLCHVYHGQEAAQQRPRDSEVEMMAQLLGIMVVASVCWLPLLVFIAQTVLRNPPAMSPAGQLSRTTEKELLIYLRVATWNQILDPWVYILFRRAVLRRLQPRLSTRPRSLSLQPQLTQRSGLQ
Protocol: Figure 7 Effect of inhibitory compounds on platelet aggregation in response to TX receptor agonist, U46619. Platelets (0.4x 10^9 plt/ml) were pretreated with 50 μM of inhibitory compounds 3, 4, 7, 8 and 9 then triggered with 1 μM U46619, a thromboxane receptor agonist. Aggregation curves of compounds of type I (A) and type II (B) are representative of 2 experiments with similar results.
as §1

[3] = test system: COS-7 cells overexpressing COX-1; experiment: WST-1 viability assay; details: 25 and 50 μM
Protocol: We used COS-7 cells overexpressing human COX-1. […] In these cells which express only COX-1, arachidonic acid is metabolized into prostaglandin (PG) H2 which will consequently breakdown into PGE2. Measurement of PGE2 under these conditions will reflect COX-1 activity [18, 19].
COS-7 cells were grown using DMEM-medium containing 10% fetal bovine serum (FBS). Cells were transfected in suspension with pcDNA3-COX-1 plasmid using FuGENE® 6 transfection reagent at a ratio of 3:1 (FuGENE: DNA, v/w) and then cultured in DMEM media + 10% FBS in 12-well plates. […] PGE2 was measured in the supernatants by enzyme immunoassay [23]. Cells were washed twice with PBS and lysed in lysis buffer. […] Briefly, SDS polyacrylamide electrophoresis was performed using 8% gels followed by protein transfer using a semi-dry transfer machine.

Row | Structure (SMILES) | Plt aggregation IC50 ± S.E.M (human washed platelets [1]) | IC50 (human washed platelets [1]) [µM] | IC50 (human COX-1) [µM] | IC50 (human washed platelets [1]; Platelet) [µM] | Effect on arachidonic acid-dependent platelet aggregation (human washed platelets [1]) | Platelet aggregation induced by collagen (human washed platelets [2]; 50 μM compound) | Thromboxane receptor-dependent platelet aggregation (thromboxane receptor) | Toxicity in WST-1 viability assay [3] | Platelet aggregation induced by collagen (human washed platelets [2]; 25 μM ibuprofen)
1 | CCCCCC(O)c1cccc(C=NO)c1 (stereo not drawn) [Compound 1] | No inhibition |  |  |  | no inhibitory effect |  |  |  | 
2 | CCCCCC(O)c1cccc(C(=O)O)c1 (stereo not drawn) [Compound 2] | No inhibition |  |  |  | no inhibitory effect |  |  |  | 
3 | CCCCCC(O)c1ccc(O)c(OC)c1 (stereo not drawn) [Compound 3] |  | 7.5 ± 0.8 | 2.2 ± 0.7 |  |  | blocked platelet aggregation induced by collagen | None of the compounds 3, 4, 7, 8 and 9 were able to act | absence of toxicity | 
4 | CCCCC(O)c1ccc(O)c(OC)c1 (stereo not drawn) [Compound 4] |  | 14.2 ± 5.7 | 12.1 ± 2.3 |  |  | blocked platelet aggregation induced by collagen | None of the compounds 3, 4, 7, 8 and 9 were able to act | absence of toxicity | 
5 | CCCCCCCCCC(O)c1ccc(O)c(OC)c1 (stereo not drawn) [Compound 5] |  | 97.6 ± 83.5 |  |  | loss of the inhibitory activity |  |  |  | 
6 | COc1cc(C(O)C2CCCC2)ccc1O (stereo not drawn) [Compound 6] |  | 41.2 ± 0.7 |  |  | loss of the inhibitory activity |  |  |  | 
7 | CC(C)Cc1ccc(C(C)C(=O)O)cc1 (stereo not drawn) [Ibuprofen, reference compound] |  |  |  | 0.5 ± 0.11 |  |  |  |  | strongly inhibited

Now from value to compound, other results behind:

Row | Plt aggregation IC50 ± S.E.M (human washed platelets [1]) | IC50 (human washed platelets [1]) [µM] | IC50 (human COX-1) [µM] | IC50 (human washed platelets [1]; Platelet) [µM] | Structure (SMILES) | Effect on arachidonic acid-dependent platelet aggregation (human washed platelets [1]) | Platelet aggregation induced by collagen (human washed platelets [2]; 50 μM compound) | Thromboxane receptor-dependent platelet aggregation (thromboxane receptor) | Toxicity in WST-1 viability assay [3] | Platelet aggregation induced by collagen (human washed platelets [2]; 25 μM ibuprofen)
8 |  | 8.5 ± 1.2 | 1.3 ± 0.5 |  | COc1cc(C(O)c2ccccc2)ccc1O (stereo not drawn) [Compound 7] | significant inhibitory activities | blocked platelet aggregation induced by collagen | None of the compounds 3, 4, 7, 8 and 9 were able to act | absence of toxicity | 
9 |  | 13.4 ± 0.5 | 6.5 ± 0.2 |  | COc1cc(C(O)c2ccc(F)cc2)ccc1O (stereo not drawn) [Compound 8] | significant inhibitory activities | blocked platelet aggregation induced by collagen | None of the compounds 3, 4, 7, 8 and 9 were able to act | absence of toxicity | 
10 |  | 11.3 ± 4.8 | 8.1 ± 1.7 |  | COc1cc(C(C)(O)c2ccccc2)ccc1O (stereo not drawn) [Compound 9] |  | blocked platelet aggregation induced by collagen | None of the compounds 3, 4, 7, 8 and 9 were able to act | absence of toxicity | 
11 | No inhibition |  |  |  | COc1ccc(C(O)c2ccccc2)cc1OC (stereo not drawn) [Compound 10] | completely abolished the inhibitory activity |  |  |  | 
